Article PMC10383271

Columns and labels:
COX-1 = target: T1, COX-1 (Ovis aries, UniProt P05979); assay: COX-1 inhibition, Cayman's COX Colorimetric Inhibitor Screening Assay Kit
T1 sequence (P05979 25-600): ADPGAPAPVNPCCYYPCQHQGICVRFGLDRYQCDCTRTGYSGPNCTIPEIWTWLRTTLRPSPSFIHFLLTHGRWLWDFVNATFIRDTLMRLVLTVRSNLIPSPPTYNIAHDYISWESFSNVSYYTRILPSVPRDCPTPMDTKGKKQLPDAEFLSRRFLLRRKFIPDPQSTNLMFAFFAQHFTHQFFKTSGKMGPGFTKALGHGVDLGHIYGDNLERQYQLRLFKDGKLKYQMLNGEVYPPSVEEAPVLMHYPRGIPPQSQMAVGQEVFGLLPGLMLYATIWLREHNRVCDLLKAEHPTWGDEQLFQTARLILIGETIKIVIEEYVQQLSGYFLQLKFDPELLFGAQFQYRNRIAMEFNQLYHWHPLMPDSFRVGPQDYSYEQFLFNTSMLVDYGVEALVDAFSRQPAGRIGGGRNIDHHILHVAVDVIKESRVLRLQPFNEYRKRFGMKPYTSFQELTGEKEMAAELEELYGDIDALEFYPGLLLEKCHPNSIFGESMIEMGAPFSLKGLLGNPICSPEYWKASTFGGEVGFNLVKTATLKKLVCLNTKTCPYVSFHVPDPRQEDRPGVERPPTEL

15-LOX = target: T2, 15-LOX (Glycine max, UniProt P08170); assay: 15-LOX inhibition, Cayman's Lipoxygenase Inhibitor Screening Assay Kit
T2 sequence (P08170 1-839): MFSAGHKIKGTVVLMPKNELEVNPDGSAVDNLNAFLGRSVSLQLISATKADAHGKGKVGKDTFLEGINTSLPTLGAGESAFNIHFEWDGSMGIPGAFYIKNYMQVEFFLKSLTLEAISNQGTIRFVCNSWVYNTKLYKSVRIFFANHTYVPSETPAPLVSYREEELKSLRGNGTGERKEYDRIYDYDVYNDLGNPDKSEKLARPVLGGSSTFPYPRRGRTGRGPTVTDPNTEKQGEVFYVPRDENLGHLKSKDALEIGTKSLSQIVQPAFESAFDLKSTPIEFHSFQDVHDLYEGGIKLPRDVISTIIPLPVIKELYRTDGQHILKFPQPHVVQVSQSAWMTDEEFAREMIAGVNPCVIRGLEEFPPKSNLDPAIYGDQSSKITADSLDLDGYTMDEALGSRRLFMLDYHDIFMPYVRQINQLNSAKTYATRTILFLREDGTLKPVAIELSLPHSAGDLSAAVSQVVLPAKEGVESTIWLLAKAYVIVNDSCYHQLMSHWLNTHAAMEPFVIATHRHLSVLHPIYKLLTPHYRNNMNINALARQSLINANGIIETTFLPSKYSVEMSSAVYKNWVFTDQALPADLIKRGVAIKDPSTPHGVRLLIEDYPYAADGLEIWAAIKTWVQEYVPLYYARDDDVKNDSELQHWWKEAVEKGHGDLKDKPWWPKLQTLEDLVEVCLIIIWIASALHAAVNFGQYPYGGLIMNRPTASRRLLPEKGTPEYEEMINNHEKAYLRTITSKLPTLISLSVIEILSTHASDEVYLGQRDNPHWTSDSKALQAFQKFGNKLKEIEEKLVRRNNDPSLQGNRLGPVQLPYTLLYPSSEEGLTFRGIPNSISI

[1] = target: human serum albumin (HSA) (Homo sapiens, UniProt P02768); assay: Binding site study with HSA, replacement of markers DanG and DanF (fluorescence); design: purchased Sigma-Aldrich Chemie GmbH; conditions: for percentage of the replacement of DanG: drug site 1 marker; for percentage of the replacement of DanF: drug site 2 marker
From the text: HSA, the most important transport protein in our body, has two main binding sites with high affinity to drug binding: drug site 1 in subdomain IIA and drug site 2 in subdomain IIIA [71, 72, 73]. To determine which site the test compounds bind to, the analysis with markers having an affinity for one of the binding sites can be used. Dansylated amino acids turn out to be good for this type of research. In our study, we used dansyl-L-glycine (DanG) and dansyl-L-phenylalanine (DanF) as drug site 1 and drug site 2 markers, respectively. DanG and DanF bound with HSA show the phenomenon of fluorescence at the excitation wave equal to 350 nm. Under these conditions, the fluorescence spectrum is recorded with a band maximum at approximately 510 nm for DanG and 505 nm for DanF, respectively. We conducted a study in which we introduced successive portions of the analyzed compounds to a solution containing equimolar amounts of HSA and each marker. We increased the molar ratio of the reactants from 1:1:0 to 1:1:10. The intensity of fluorescence decreases during the addition of successive portions of the analyzed compounds.
Based on the obtained results, it is possible to calculate the percentage of replacement of DanG or DanF in the complex with albumin by the tested compounds and thus compare the effectiveness of this reaction for all analyzed molecules. (6) percentage of replacement=F0−F/F0·100%
Binding site studies were conducted using fluorescence measurements. Spectra were recorded on Cary Eclipse 500 spectrophotometer (Agilent, Santa Clara, CA, USA) at room temperature with a 10 mm path length. HSA and AAG solutions were prepared in phosphate buffer, giving concentrations equal to 1 × 10^−6 M. The concentrations of dansylated-L-glycine (DanG), dansylated-L-phenylalanine (DanF), and quinaldine red (QR) were 1 × 10^−3 M. The densylated amino acids and QR solutions were prepared in ethanol. For the HSA-dansylated amino acids studies, the excitation wavelength was equal to 350 nm, while for the AAG-QR system, it was 500 nm, respectively. Then, 3 mL of protein was mixed with 3 µL of marker solution, giving a molar ratio of 1 to 1. Next, successive portions of the analyzed compounds were added to the mixtures prepared in this way, obtaining the appropriate protein-to-compound molar ratios, amounting to 1:0, 1:0.5, 1:1, 1:2, 1:3, 1:4, 1:5, and 1:10 for the HSA-densylated amino acids systems, and 1:0, 1:0.5, 1:1, 1:2, 1:3, 1:4, 1:6, 1:8, and 1:10 for the AAG-QR systems.

[2] = HSA:marker:compound molar ratio 1:1:0.5
[3] = HSA:marker:compound molar ratio 1:1:1
[4] = HSA:marker:compound molar ratio 1:1:2
[5] = HSA:marker:compound molar ratio 1:1:3
[6] = HSA:marker:compound molar ratio 1:1:4
[7] = HSA:marker:compound molar ratio 1:1:5
[8] = HSA:marker:compound molar ratio 1:1:10

Sequence of human serum albumin (HSA) (P02768 25-609): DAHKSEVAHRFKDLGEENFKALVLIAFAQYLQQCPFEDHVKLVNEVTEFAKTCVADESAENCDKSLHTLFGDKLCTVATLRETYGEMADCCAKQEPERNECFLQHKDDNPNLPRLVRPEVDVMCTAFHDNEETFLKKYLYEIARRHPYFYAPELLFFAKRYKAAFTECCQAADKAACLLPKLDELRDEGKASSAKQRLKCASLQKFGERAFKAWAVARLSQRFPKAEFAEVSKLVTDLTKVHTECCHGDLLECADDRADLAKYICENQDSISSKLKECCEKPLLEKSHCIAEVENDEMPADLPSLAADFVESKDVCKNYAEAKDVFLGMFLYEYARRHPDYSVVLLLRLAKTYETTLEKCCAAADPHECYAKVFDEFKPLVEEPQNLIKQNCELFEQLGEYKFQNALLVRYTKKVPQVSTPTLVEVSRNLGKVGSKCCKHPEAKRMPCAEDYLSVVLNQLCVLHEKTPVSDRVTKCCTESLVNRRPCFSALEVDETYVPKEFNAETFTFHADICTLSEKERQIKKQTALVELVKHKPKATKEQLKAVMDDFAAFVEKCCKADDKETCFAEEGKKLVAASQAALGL

Row | Compound | IC50 (COX-1) [µM] | IC50 (15-LOX) [µM] | percentage of the replacement of DanG [1, 2] [%] | percentage of the replacement of DanG [1, 3] [%] | percentage of the replacement of DanG [1, 4] [%] | percentage of the replacement of DanG [1, 5] [%] | percentage of the replacement of DanG [1, 6] [%] | percentage of the replacement of DanG [1, 7] [%] | percentage of the replacement of DanG [1, 8] [%] | percentage of the replacement of DanF [1, 2] [%] | percentage of the replacement of DanF [1, 3] [%] | percentage of the replacement of DanF [1, 4] [%] | percentage of the replacement of DanF [1, 5] [%] | percentage of the replacement of DanF [1, 6] [%] | percentage of the replacement of DanF [1, 7] [%] | percentage of the replacement of DanF [1, 8] [%]
1 | Cc1c2c(OCC(=O)N/N=C/c3ccccc3)nn(C)c(=O)c2c(C)n1-c1ccccc1 [Compound 5b, N-[(Z/E)-benzylideneamino]-2-(3,5,7-trimethyl-4-oxo-6-phenyl-pyrrolo[3,4-d]pyridazin-1-yl)oxy-acetamide] | 90.1 ± 1.8 | 13.5 ± 0.02 | 0 | 0.7 | 5.6 | 7.7 | 9.8 | 11.2 | 14.0 | 5.2 | 9.1 | 15.7 | 20.4 | 23.5 | 27.4 | 32.2
2 | Cc1c2c(OCC(=O)N/N=C/c3ccccc3)nn(C)c(=O)c2c(C)n1-c1cccc(Cl)c1 [Compound 5c, N-[(Z/E)-benzylideneamino]-2-[6-(3-chlorophenyl)-3,5,7-trimethyl-4-oxo-pyrrolo[3,4-d]pyridazin-1-yl]oxyacetamide] | 98.9 ± 1.6 | 12.7 ± 0.04 | 2.9 | 2.9 | 4.3 | 5.0 | 5.7 | 6.4 | 11.4 | 6.2 | 9.5 | 13.8 | 18.1 | 19.0 | 21.0 | 23.3
3 | CCCCn1c(C)c2c(OCC(=O)N/N=C/c3ccccc3)nn(C)c(=O)c2c1C [Compound 5a, N-[(Z/E)-benzylideneamino]-2-(6-butyl-3,5,7-trimethyl-4-oxo-pyrrolo[3,4-d]pyridazin-1-yl)oxy-acetamide] | 81.9 ± 2.1 | 12.9 ± 0.06 | 0.7 | 0.7 | 3.7 | 5.2 | 6.7 | 8.5 | 15.7 | 2.3 | 2.7 | 5.9 | 9.0 | 11.7 | 14.9 | 28.8
